US4605744A, “Imidazole derivatives” (Hoffmann-La Roche Inc., priority 1985, dated 1986)
Counter-ions that a name gives are not always drawn. Like-named read-outs stand apart in the source and are kept apart here.

Assays:
Assay in all cases: In vitro antibacterial activity (MIC)
Type in all cases: cell-based
E. cloacae 9570A = settings: Enterobacter cloacae
Procedure, shortened: (§1)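 Broth microdilution in Mueller-Hinton broth, drug range 128 to 0.008 μg/ml; each well inoculated with 1.5 μl of a 10^-2 dilution of overnight culture. Sealed trays incubated overnight at 37° C. MIC is the lowest concentration showing no visible growth.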

S. pyogenes 4 = settings: Streptococcus pyogenes, 4, S. pyogenes 4; read-out: MIC
Procedure, shortened: as §1

S. marcescens S4 = settings: Serratia marcescens, S4, S. marcescens S4; read-out: MIC
Procedure, shortened: as §1

P. mirabilis 90 = settings: Proteus mirabilis, 90, P. mirabilis 90; read-out: MIC
Procedure, shortened: as §1

S. pneumoniae 6301 = settings: Streptococcus pneumoniae, 6301, S. pneumoniae 6301; read-out: MIC
Procedure, shortened: as §1

S. marcescens S147 = settings: Serratia marcescens; S. marcescens S147; read-out: MIC
Procedure, shortened: as §1

E. coli R-563 = settings: Escherichia coli, R563, E. coli R-563; read-out: MIC
Procedure, shortened: as §1

E. cloacae 214 = settings: Enterobacter cloacae, 214, E. cloacae 214; read-out: MIC
Procedure, shortened: as §1

K. pneumoniae 35 = settings: Klebsiella pneumoniae; K. pneumoniae 35; read-out: MIC
Procedure, shortened: as §1

C. freundii CDC6 = settings: Citrobacter freundii, CDC6, C. freundii CDC6; read-out: MIC
Procedure, shortened: as §1

C. diversus CDC 1663-72 = settings: Citrobacter koseri, CDC166372; C. diversus CDC 1663-72; read-out: MIC
Procedure, shortened: as §1

K. pneumoniae 503-964 = settings: Klebsiella pneumoniae, 503964; K. pneumoniae 503-964; read-out: MIC
Procedure, shortened: as §1

S. pyogenes 503-782 = settings: Streptococcus pyogenes, 503782; S. pyogenes 503-782; read-out: MIC
Procedure, shortened: as §1

S. marcescens S2 = settings: Serratia marcescens; S. marcescens S2; read-out: MIC
Procedure, shortened: as §1

S. marcescens S5 = settings: Serratia marcescens, S5, S. marcescens S5; read-out: MIC
Procedure, shortened: as §1

S. faecalis C1 = settings: Enterococcus faecalis; S. faecalis C1; read-out: MIC
Procedure, shortened: as §1

P. aeruginosa 8710 = settings: Pseudomonas aeruginosa; P. aeruginosa 8710; read-out: MIC
Procedure, shortened: as §1

S. marcescens S3 = settings: Serratia marcescens; S. marcescens S3; read-out: MIC
Procedure, shortened: as §1

P. vulgaris 101 = settings: Proteus vulgaris, 101, P. vulgaris 101; read-out: MIC
Procedure, shortened: as §1

S. schottmuelleri = settings: read-out: MIC
Procedure, shortened: as §1

P. vulgaris 100 = settings: Proteus vulgaris; P. vulgaris 100; read-out: MIC
Procedure, shortened: as §1

C. freundii 8ASM = settings: Citrobacter freundii, 8ASM, C. freundii 8ASM; read-out: MIC
Procedure, shortened: as §1

E. cloacae P99 = settings: Enterobacter cloacae, P99, E. cloacae P99
Procedure, shortened: as §1

E. coli 5152 = test system: E. coli 5152
Procedure, shortened: as §1

E. cloacae 5699 = settings: Enterobacter cloacae, 5699, E. cloacae 5699; read-out: MIC
Procedure, shortened: as §1

P. mirabilis 190 = settings: Proteus mirabilis, 190, P. mirabilis 190; read-out: MIC
Procedure, shortened: as §1

P. aeruginosa 6148B = settings: Pseudomonas aeruginosa, read-out: MIC
Procedure, shortened: as §1

P. mirabilis 620A = settings: Proteus mirabilis, 620A, P. mirabilis 620A; read-out: MIC
Procedure, shortened: as §1

E. aerogenes 83 = settings: Klebsiella aerogenes, 83, E. aerogenes 83; read-out: MIC
Procedure, shortened: as §1

S. pneumoniae SC = settings: Streptococcus pneumoniae, read-out: MIC
Procedure, shortened: as §1

K. pneumoniae 5096 = settings: Klebsiella pneumoniae; K. pneumoniae 5096; read-out: MIC
Procedure, shortened: as §1

K. pneumoniae 4964 = settings: Klebsiella pneumoniae, 4964, K. pneumoniae 4964; read-out: MIC
Procedure, shortened: as §1

S. marcescens S714 = settings: Serratia marcescens, S714, S. marcescens S714; read-out: MIC
Procedure, shortened: as §1

P. aeruginosa 5700 = settings: Pseudomonas aeruginosa, 5700, P. aeruginosa 5700; read-out: MIC
Procedure, shortened: as §1

E. coli 503-455 = test system: E. coli 503-455
Procedure, shortened: as §1

P. aeruginosa 503-820 = settings: Pseudomonas aeruginosa, 503820; P. aeruginosa 503-820; read-out: MIC
Procedure, shortened: as §1

S. pneumoniae 6302 = settings: Streptococcus pneumoniae, 6302, S. pneumoniae 6302; read-out: MIC
Procedure, shortened: as §1

E. coli 387-1 = settings: Escherichia coli, 3871, E. coli 387-1; read-out: MIC
Procedure, shortened: as §1

S. aureus Giorgio = settings: Staphylococcus aureus, S. aureus Giorgio; read-out: MIC
Procedure, shortened: as §1

P. aeruginosa 8780 = settings: Pseudomonas aeruginosa; P. aeruginosa 8780; read-out: MIC
Procedure, shortened: as §1

E. aerogenes 503-478 = settings: Klebsiella aerogenes, 503478, E. aerogenes 503-478; read-out: MIC
Procedure, shortened: as §1

E. cloacae 9295 = settings: Enterobacter cloacae, 9295, E. cloacae 9295; read-out: MIC
Procedure, shortened: as §1

E. coli 48 = test system: E. coli 48
Procedure, shortened: as §1

E. coli 4 = settings: Escherichia coli, 4, E. coli 4; read-out: MIC
Procedure, shortened: as §1

S. marcescens S1 = settings: Serratia marcescens, S1, S. marcescens S1; read-out: MIC
Procedure, shortened: as §1

`CC1(C)S[C@@H]2[C@H](N=CN3CCC(CCCn4ccnc4[N+](=O)[O-])CC3)C(=O)N2[C@H]1C(=O)O` [K, [2S-(2alpha,5alpha,6beta)]-6-[[[4-[3-(2-nitro-1H-imidazol-1-yl)propyl]piperidinyl]methylene]amino]-3,3-dimethyl-7-oxo-4-thia-1-azabicyclo[3.2.0]heptane-2-carboxylic acid hydrochloride 0.66 molar hydrate] was tested, and the MIC (E. cloacae 9570A; 9570A) was 1 µg/mL, the MIC (S. pyogenes 4) was 0.5 µg/mL and the MIC (S. marcescens S4) was 8 µg/mL. It also gave an MIC (P. mirabilis 90) of 8 µg/mL, an MIC (S. pneumoniae 6301) of 1 µg/mL and an MIC (S. marcescens S147) of 2 µg/mL. It also gave an MIC (E. coli R-563) of 0.5 µg/mL, an MIC (E. cloacae 214) of 0.5 µg/mL and an MIC (K. pneumoniae 35) of 0.5 µg/mL. It also gave an MIC (C. freundii CDC6) of 0.5 µg/mL, an MIC (C. diversus CDC 1663-72) of 0.25 µg/mL and an MIC (K. pneumoniae 503-964) of 0.5 µg/mL. For the same compound, the MIC (S. pyogenes 503-782) was 128 µg/mL, the MIC (S. marcescens S2) was 2 µg/mL and the MIC (S. marcescens S5) was 8 µg/mL. The MIC (S. faecalis C1) was 128 µg/mL, the MIC (P. aeruginosa 8710) was greater than 128 µg/mL and the MIC (S. marcescens S3) was 4 µg/mL. It also gave an MIC (P. vulgaris 101) of 16 µg/mL, an MIC (S. schottmuelleri) of 0.5 µg/mL and an MIC (P. vulgaris 100) of 16 µg/mL. It also gave an MIC (C. freundii 8ASM) of 0.25 µg/mL, an MIC (E. cloacae P99) of 0.5 µg/mL and an MIC (E. coli 5152; Escherichia coli, 5152) of 8 µg/mL. For the same compound, the MIC (E. cloacae 5699) was 1 µg/mL, the MIC (P. mirabilis 190) was 0.5 µg/mL and the MIC (P. aeruginosa 6148B) was greater than 128 µg/mL. The MIC (P. mirabilis 620A) was 16 µg/mL, the MIC (E. aerogenes 83) was 8 µg/mL and the MIC (S. pneumoniae SC) was 1 µg/mL. The MIC (K. pneumoniae 5096) was 16 µg/mL, the MIC (K. pneumoniae 4964) was 0.5 µg/mL and the MIC (S. marcescens S714) was 8 µg/mL. For the same compound, the MIC (P. aeruginosa 5700) was 4 µg/mL, the MIC (E. coli 503-455; Escherichia coli, 503455) was 4 µg/mL and the MIC (P. aeruginosa 503-820) was greater than 128 µg/mL. The MIC (S. pneumoniae 6302) was 1 µg/mL, the MIC (E. coli 387-1) was 0.5 µg/mL and the MIC (S. aureus Giorgio) was 8 µg/mL. The MIC (P. aeruginosa 8780) was greater than 128 µg/mL, the MIC (E. aerogenes 503-478) was 4 µg/mL and the MIC (E. cloacae 9295) was 1 µg/mL. For the same compound, the MIC (E. coli 48; Escherichia coli, 48) was 0.25 µg/mL, the MIC (E. coli 4) was 0.5 µg/mL and the MIC (S. marcescens S1) was 2 µg/mL.
`CC1(C)S[C@@H]2[C@H](N=CN3CCC(C4=NCCN4)CC3)C(=O)N2[C@H]1C(=O)O` [L, [2S-(2alpha,5alpha,6beta)]-6-[[[4-(4,5-dihydro-1H-imidazol-2-yl)-1-piperidinyl]methylene]amino]-3,3-dimethyl-7-oxo-4-thia-1-azabicyclo[3.2.0]heptane-2-carboxylic acid hydrochloride] was tested, and the MIC (E. cloacae 9570A; read-out: MIC) was 2 µg/mL, the MIC (S. pyogenes 4) was 0.5 µg/mL and the MIC (S. marcescens S4) was 2 µg/mL. For the same compound, the MIC (P. mirabilis 90) was 2 µg/mL, the MIC (S. pneumoniae 6301) was 0.5 µg/mL and the MIC (S. marcescens S147) was 1 µg/mL. It also gave an MIC (E. coli R-563) of 0.25 µg/mL, an MIC (E. cloacae 214) of 1 µg/mL and an MIC (K. pneumoniae 35) of 2 µg/mL. It also gave an MIC (C. freundii CDC6) of 0.5 µg/mL, an MIC (C. diversus CDC 1663-72) of 0.5 µg/mL and an MIC (K. pneumoniae 503-964) of 2 µg/mL. The MIC (S. pyogenes 503-782) was 32 µg/mL, the MIC (S. marcescens S2) was 0.5 µg/mL and the MIC (S. marcescens S5) was 4 µg/mL. For the same compound, the MIC (S. faecalis C1) was 32 µg/mL, the MIC (P. aeruginosa 8710) was 128 µg/mL and the MIC (S. marcescens S3) was 0.5 µg/mL. It also gave an MIC (P. vulgaris 101) of 32 µg/mL, an MIC (S. schottmuelleri) of 0.25 µg/mL and an MIC (P. vulgaris 100) of 32 µg/mL. The MIC (C. freundii 8ASM) was 0.25 µg/mL, the MIC (E. cloacae P99) was 0.25 µg/mL and the MIC (E. coli 5152; Escherichia coli, 5152, E. coli 5152, read-out: MIC) was 32 µg/mL. For the same compound, the MIC (E. cloacae 5699) was 1 µg/mL, the MIC (P. mirabilis 190) was 0.5 µg/mL and the MIC (P. aeruginosa 6148B) was 128 µg/mL. The MIC (P. mirabilis 620A) was greater than 128 µg/mL, the MIC (E. aerogenes 83) was 2 µg/mL and the MIC (S. pneumoniae SC) was 1 µg/mL. It also gave an MIC (K. pneumoniae 5096) of 64 µg/mL, an MIC (K. pneumoniae 4964) of 64 µg/mL and an MIC (S. marcescens S714) of 2 µg/mL. For the same compound, the MIC (P. aeruginosa 5700) was 2 µg/mL, the MIC (E. coli 503-455; Escherichia coli, 503455, E. coli 503-455, read-out: MIC) was 4 µg/mL and the MIC (P. aeruginosa 503-820) was 128 µg/mL. For the same compound, the MIC (S. pneumoniae 6302) was 1 µg/mL, the MIC (E. coli 387-1) was 0.25 µg/mL and the MIC (S. aureus Giorgio) was 2 µg/mL. It also gave an MIC (P. aeruginosa 8780) greater than 128 µg/mL, an MIC (E. aerogenes 503-478) of 8 µg/mL and an MIC (E. cloacae 9295) of 2 µg/mL. For the same compound, the MIC (E. coli 48; Escherichia coli, 48, E. coli 48, read-out: MIC) was 0.5 µg/mL, the MIC (E. coli 4) was 0.125 µg/mL and the MIC (S. marcescens S1) was 0.5 µg/mL.
